Measurements: patent publication EP4810483A1, “6- AND 5-HETEROARYL DERIVATIVES AND USE THEREOF” (CMS Research & Development Pte. Ltd., priority 2023, dated 2025)
Where two headings read alike, the source gives them in different places.

Columns and labels:
hERG potassium channel = biological target: T1, hERG potassium channel (Homo sapiens, UniProt Q12809); assay: Automated patch clamp (Qpatch) assay for hERG potassium channel activity; assay type: cell-based
T1 construct: expressed in transfected cells; host or cells: CHO-hERG
Method: Assay Example 5: Automated patch clamp (Qpatch) assay for hERG potassium channel activity
CHO-hERG cells were cultured in 175 cm^2 culture flasks. When the cell density reached 60-80%, the culture medium was removed, the cells were washed once with 7 mL of PBS, and then 3 mL of cell dissociation reagent was added for digestion. After complete digestion, 7 mL of culture medium was added to neutralize, and the cells were centrifuged. The supernatant was aspirated, and the cells were resuspended in 5 mL of culture medium to achieve a cell density of 2~5 × 10^6/mL.
The compound stock solution was diluted with DMSO. 10 µL of compound stock solution was added to 20 µL of DMSO solution, followed by 3-fold serial dilution to obtain 6 DMSO concentrations. 4 µL of the compound solution at each of the six DMSO concentrations was added to 396 µL of extracellular solution to achieve a 100-fold dilution to obtain six intermediate concentrations. Then, 80 µL of the compound solution at each of the six intermediate concentrations was added to 320 µL of extracellular solution to achieve a 5-fold dilution to the desired final test concentrations. […]
The electrophysiological process was recorded. […] This voltage stimulation was applied every 15 seconds, and recorded for 2 minutes. The extracellular solution was then given, and recorded for 5 minutes. […]
The assay data were analyzed using GraphPad Prism 5.0 software. […]

CYP3A4 = CYP3A4 (Homo sapiens, UniProt P08684); assay: Drug-drug interaction evaluation: CYP inhibition in human liver microsomes (cocktail method)
Method: (§1) The cocktail method using specific probe substrates for CYP1A2, CYP2C9, CYP2C19, CYP2D6 and CYP3A was used to evaluate the inhibitory effect of the compounds on the activity of human liver microsomal cytochrome P450 isoenzymes (CYP1A2, CYP2C9, CYP2C19, CYP2D6 and CYP3A).
(§2) Human liver microsomes, probe substrates, positive control inhibitors, and reduced nicotinamide adenine dinucleotide phosphate (NADPH).
(§3) To the corresponding wells of a reaction plate, 20 µL of substrate solution was added; to blank wells, 20 µL of potassium phosphate buffer was added.
(§4) To the corresponding wells, 2 µL of test compound and positive control working solution were added; to inhibitor-free and blank wells, 2 µL of solvent was added.
(§5) Human liver microsome working solution was prepared, and 158 µL of human liver microsome working solution was added to each well of the reaction plate.
(§6) The plate was pre-incubated at 37.0°C for 10 minutes.
(§7) To start the reaction, 20 µL of NADPH cofactor working solution was added to the reaction plate.
(§8) After incubation in a 37.0°C water bath with mixing for 10 minutes, 400 µL of stop solution was added to terminate the reaction.
(§9) The sample plate was centrifuged at 4000 rpm for 20 minutes.
(§10) 200 µL of supernatant was taken and mixed with 100 µL of pure water as diluent, and the plate was shaken to mix well.
(§11) Analysis was performed by liquid chromatography-tandem mass spectrometry (LC-MS/MS).
(§12) Using the percentage of remaining activity as the ordinate and the test compound concentration as the abscissa, a non-linear regression analysis was performed with a three-parameter or four-parameter model using XL fit software to calculate the IC50 value.
(§13) y = (max)/(1 + (((x)/(IC50)))^−hillslope) [formula]
(§14) y = min + (max−min)/(1 + (((x)/(IC50)))^−hillslope) [formula]
(§15) max = maximum enzyme activity; min = minimum enzyme activity; x = concentration of test compound or positive control inhibitor; y = enzyme activity at the corresponding concentration; hillslope = slope; IC50 = half-maximal inhibitory concentration. The four-parameter equation was used when the minimum enzyme activity was within ±10%; otherwise the three-parameter equation was used.

CYP2D6 = CYP2D6 (Homo sapiens, UniProt P10635); assay: as above
Method: as §1, §2, §3, §4, §5, §6, §7, §8, §9, §10, §11, §12, §13, §14, §15

CYP2C19 = CYP2C19 (Homo sapiens, UniProt P33261); assay: as above
Method: as §1, §2, §3, §4, §5, §6, §7, §8, §9, §10, §11, §12, §13, §14, §15

CYP2C9 = CYP2C9 (Homo sapiens, UniProt P11712); assay: as above
Method: as §1, §2, §3, §4, §5, §6, §7, §8, §9, §10, §11, §12, §13, §14, §15

CYP1A2 = biological target: T2, CYP1A2 (Homo sapiens, UniProt P05177); assay: as above
T2 sequence (P05177 1-516): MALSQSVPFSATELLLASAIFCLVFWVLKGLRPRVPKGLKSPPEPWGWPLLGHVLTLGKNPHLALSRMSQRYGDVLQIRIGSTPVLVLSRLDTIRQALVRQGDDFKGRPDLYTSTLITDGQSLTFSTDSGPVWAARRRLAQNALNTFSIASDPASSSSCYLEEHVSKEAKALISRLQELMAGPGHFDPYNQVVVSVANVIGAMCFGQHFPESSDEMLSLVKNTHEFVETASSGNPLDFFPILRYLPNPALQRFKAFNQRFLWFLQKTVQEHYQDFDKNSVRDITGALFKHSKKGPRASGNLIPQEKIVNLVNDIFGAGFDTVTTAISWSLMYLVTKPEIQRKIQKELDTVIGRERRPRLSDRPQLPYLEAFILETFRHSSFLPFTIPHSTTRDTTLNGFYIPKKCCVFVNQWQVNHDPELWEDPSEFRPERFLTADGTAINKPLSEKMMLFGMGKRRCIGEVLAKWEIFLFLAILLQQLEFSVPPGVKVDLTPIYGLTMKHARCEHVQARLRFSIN
Method: as §1, §2, §3, §4, §5, §6, §7, §8, §9, §10, §11, §12, §13, §14, §15

CYP3A4, sequence (P08684 2-503): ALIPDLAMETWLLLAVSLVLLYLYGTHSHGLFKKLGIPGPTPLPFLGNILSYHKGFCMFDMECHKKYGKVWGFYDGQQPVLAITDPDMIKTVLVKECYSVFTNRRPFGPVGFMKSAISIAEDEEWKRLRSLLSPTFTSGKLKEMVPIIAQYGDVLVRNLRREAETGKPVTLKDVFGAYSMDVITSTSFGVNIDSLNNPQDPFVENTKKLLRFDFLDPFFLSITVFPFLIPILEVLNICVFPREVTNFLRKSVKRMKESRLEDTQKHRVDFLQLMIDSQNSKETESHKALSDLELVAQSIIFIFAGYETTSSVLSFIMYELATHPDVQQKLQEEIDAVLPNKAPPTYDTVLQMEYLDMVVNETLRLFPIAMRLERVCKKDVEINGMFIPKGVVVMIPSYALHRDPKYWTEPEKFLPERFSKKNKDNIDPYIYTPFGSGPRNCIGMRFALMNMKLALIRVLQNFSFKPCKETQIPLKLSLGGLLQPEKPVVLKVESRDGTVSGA
T1 sequence (Q12809 whole entry): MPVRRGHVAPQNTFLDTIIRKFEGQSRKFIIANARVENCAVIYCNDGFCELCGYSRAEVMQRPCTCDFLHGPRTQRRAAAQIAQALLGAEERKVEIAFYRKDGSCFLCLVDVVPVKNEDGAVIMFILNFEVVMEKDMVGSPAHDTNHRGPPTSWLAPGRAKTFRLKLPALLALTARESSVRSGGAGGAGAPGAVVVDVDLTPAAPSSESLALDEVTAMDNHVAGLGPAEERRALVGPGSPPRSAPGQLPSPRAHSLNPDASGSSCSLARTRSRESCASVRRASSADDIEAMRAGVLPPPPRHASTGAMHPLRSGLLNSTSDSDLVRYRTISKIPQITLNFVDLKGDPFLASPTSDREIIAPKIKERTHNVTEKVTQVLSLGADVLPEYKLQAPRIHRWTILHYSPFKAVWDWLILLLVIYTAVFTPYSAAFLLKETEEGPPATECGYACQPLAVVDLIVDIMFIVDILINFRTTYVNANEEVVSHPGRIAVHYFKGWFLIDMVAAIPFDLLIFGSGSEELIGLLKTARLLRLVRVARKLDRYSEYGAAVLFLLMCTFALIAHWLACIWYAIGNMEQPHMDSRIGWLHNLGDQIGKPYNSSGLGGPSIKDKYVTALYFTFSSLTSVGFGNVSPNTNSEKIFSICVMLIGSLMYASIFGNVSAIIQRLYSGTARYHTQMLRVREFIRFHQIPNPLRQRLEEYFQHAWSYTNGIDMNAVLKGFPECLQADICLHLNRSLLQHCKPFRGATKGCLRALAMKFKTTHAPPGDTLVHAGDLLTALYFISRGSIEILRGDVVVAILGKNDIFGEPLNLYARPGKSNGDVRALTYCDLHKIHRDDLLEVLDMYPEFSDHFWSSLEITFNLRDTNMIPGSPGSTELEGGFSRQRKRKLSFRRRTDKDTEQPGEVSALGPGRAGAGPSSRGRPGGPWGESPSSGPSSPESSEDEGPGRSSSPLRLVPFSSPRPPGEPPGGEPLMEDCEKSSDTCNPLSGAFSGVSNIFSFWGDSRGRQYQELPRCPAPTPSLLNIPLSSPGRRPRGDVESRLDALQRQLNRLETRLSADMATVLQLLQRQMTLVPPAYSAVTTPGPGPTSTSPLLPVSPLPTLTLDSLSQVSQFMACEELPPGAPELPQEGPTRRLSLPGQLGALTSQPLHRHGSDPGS
CYP2C9, sequence (P11712 whole entry): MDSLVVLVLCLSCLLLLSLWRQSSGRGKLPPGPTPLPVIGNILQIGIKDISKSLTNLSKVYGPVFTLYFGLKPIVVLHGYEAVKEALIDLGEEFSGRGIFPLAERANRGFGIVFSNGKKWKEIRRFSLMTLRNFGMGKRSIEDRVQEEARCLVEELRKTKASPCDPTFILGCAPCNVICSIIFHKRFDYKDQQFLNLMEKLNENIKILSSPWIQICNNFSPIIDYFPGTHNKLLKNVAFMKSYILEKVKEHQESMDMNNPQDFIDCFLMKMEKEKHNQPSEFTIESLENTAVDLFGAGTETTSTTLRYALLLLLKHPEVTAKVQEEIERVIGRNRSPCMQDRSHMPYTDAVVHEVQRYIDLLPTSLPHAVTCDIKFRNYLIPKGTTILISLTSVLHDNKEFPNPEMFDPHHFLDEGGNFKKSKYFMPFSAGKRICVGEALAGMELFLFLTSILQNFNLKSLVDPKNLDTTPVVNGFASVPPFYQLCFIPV
CYP2C19, sequence (P33261 whole entry): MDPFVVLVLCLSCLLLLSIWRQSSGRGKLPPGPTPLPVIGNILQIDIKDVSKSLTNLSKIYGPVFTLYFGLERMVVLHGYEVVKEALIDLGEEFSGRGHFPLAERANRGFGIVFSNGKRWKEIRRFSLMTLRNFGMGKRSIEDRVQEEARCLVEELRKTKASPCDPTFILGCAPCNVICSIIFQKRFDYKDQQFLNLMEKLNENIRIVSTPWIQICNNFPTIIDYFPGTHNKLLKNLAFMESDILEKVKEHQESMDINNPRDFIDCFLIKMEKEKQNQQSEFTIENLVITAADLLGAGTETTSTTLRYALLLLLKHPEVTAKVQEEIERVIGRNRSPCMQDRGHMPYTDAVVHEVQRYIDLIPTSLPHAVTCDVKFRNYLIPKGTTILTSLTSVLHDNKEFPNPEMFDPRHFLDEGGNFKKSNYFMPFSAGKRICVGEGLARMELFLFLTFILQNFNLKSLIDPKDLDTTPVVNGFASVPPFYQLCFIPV
CYP2D6, sequence (P10635 whole entry): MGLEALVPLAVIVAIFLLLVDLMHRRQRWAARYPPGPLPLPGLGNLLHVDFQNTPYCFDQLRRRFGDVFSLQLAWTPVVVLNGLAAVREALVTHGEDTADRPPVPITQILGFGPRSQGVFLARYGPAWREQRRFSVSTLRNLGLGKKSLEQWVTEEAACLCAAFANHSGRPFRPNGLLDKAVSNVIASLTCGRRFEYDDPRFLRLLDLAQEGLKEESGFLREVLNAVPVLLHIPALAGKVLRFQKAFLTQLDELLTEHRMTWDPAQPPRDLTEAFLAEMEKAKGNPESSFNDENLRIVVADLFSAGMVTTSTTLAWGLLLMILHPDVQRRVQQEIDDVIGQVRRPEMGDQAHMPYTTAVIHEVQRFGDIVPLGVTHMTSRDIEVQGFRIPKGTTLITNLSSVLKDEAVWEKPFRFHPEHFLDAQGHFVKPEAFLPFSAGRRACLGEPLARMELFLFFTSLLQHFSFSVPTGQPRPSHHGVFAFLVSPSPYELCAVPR

Compound: Cc1c(NC(=O)CC(C)(C)C)n(C)c2cc(Nc3ccc(F)cc3)ccc12 [Compound 1]
- IC50 (hERG potassium channel; CHO-hERG cells, Qpatch, highest test concentration 40.00 µM, read-out: IC50): > 40 µM

Compound: Cc1c(NC(=O)CC(C)(C)C)n(C)c2cc(Nc3ccc(C(F)(F)F)cc3)ccc12 [Compound 5]
- IC50 (CYP3A4): > 50 µM
- IC50 (hERG potassium channel): > 40 µM

Compound: Cc1nc(Nc2ccc3c(C)c(NC(=O)CC(C)(C)C)n(C)c3c2)ccc1F [Compound 41]
- IC50 (CYP2D6): > 50 µM
- IC50 (CYP3A4): > 50 µM
- IC50 (CYP2C19): > 50 µM
- IC50 (CYP2C9): 11 µM
- IC50 (CYP1A2): 11 µM
